Measurements taken from the supplement of paper PMC13207355.
Structures can show the parent of a compound that is named as a salt.

What was measured:
Settings in all cases: exposure time: 72 h
E13 [1] = patient-derived glioblastoma stem cells of classical subtype; test: surviving fraction (nuclei count normalised to DMSO); higher = more cells surviving (less toxic)
E21 [2] = patient-derived glioblastoma stem cells of mesenchymal subtype; test: as above
E28 [3] = patient-derived glioblastoma stem cells of classical subtype; test: as above
E31 [4] = patient-derived glioblastoma stem cells of proneural subtype; test: as above
E34 [5] = patient-derived glioblastoma stem cells of proneural subtype; test: as above
E57 [6] = patient-derived glioblastoma stem cells of mesenchymal subtype; test: as above
FT3469 [7] = normal neural stem cell line; test: as above
E13 [8] = test: phenotypic distance (Euclidean, principal components) from DMSO controls (arbitrary units); higher = stronger morphological change
E21 [9] = test: as above
E28 [10] = test: as above
E31 [11] = test: as above
E34 [12] = test: as above
E57 [13] = test: as above
FT3469 [14] = test: as above
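Throughout, for phenotypic distance (Euclidean, principal components) from DMSO controls: cell Painting imaging in 384-well plates, CellProfiler features reduced to at least 20 principal components, Euclidean distance versus same-plate DMSO vehicle wells (0.1% v/v), median over six images per well.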
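Throughout, for surviving fraction (nuclei count normalised to DMSO): nuclei counted by high-content imaging of Hoechst-stained cells in laminin-coated 384-well plates, relative to 0.1% DMSO vehicle wells, with staurosporine as cell-death control.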

CC(C)C[C@H](NC(=O)CNC(=O)c1cc(Cl)ccc1Cl)B1OC(=O)C(CC(=O)O)(CC(=O)O)O1 [MLN9708]
Settings	phenotypic distance	surviving fraction
E13 [1], 4.1 nM	–	0.0208
E13 [1], 12.3 nM	–	0.00954
E13 [1], 37 nM	–	0.0104
E13 [1], 111.1 nM	–	0.00174
E13 [1], 333.3 nM	–	0.00347
E13 [1], 1000 nM	–	0.00607
E13 [1], 3000 nM	–	0.000868
E13 [8], 4.1 nM	9.36	–
E13 [8], 12.3 nM	9.93	–
E13 [8], 37 nM	9	–
E13 [8], 111.1 nM	12.2	–
E13 [8], 333.3 nM	10.8	–
E13 [8], 1000 nM	10.1	–
E13 [8], 3000 nM	16.2	–
E21 [2], 4.1 nM	–	0.0299
E21 [2], 12.3 nM	–	0.0187
E21 [2], 37 nM	–	0.0103
E21 [2], 111.1 nM	–	0.0103
E21 [2], 333.3 nM	–	0.0084
E21 [2], 1000 nM	–	0.00373
E21 [2], 3000 nM	–	0.000933
E21 [9], 4.1 nM	7.66	–
E21 [9], 12.3 nM	7.71	–
E21 [9], 37 nM	11.9	–
E21 [9], 111.1 nM	7.64	–
E21 [9], 333.3 nM	11.8	–
E21 [9], 1000 nM	11.7	–
E21 [9], 3000 nM	15.7	–
E28 [3], 4.1 nM	–	0.244
E28 [3], 12.3 nM	–	0.239
E28 [3], 37 nM	–	0.158
E28 [3], 111.1 nM	–	0.0898
E28 [3], 333.3 nM	–	0.0988
E28 [3], 1000 nM	–	0.0719
E28 [3], 3000 nM	–	0.0719
E28 [10], 4.1 nM	3.84	–
E28 [10], 12.3 nM	3.91	–
E28 [10], 37 nM	4.06	–
E28 [10], 111.1 nM	7.19	–
E28 [10], 333.3 nM	5.5	–
E28 [10], 1000 nM	5.6	–
E28 [10], 3000 nM	6.86	–
E31 [4], 4.1 nM	–	0.082
E31 [4], 12.3 nM	–	0.0803
E31 [4], 37 nM	–	0.0151
E31 [4], 111.1 nM	–	0.00335
E31 [4], 333.3 nM	–	0.00669
E31 [4], 1000 nM	–	0.00335
E31 [4], 3000 nM	–	0.00669
E31 [11], 4.1 nM	5.67	–
E31 [11], 12.3 nM	7.74	–
E31 [11], 37 nM	9.26	–
E31 [11], 111.1 nM	14.5	–
E31 [11], 333.3 nM	11.4	–
E31 [11], 1000 nM	13	–
E31 [11], 3000 nM	12.3	–
E34 [5], 4.1 nM	–	0.307
E34 [5], 12.3 nM	–	0.293
E34 [5], 37 nM	–	0.123
E34 [5], 111.1 nM	–	0.0439
E34 [5], 333.3 nM	–	0.064
E34 [5], 1000 nM	–	0.0421
E34 [5], 3000 nM	–	0.0549
E34 [12], 4.1 nM	5.41	–
E34 [12], 12.3 nM	6.29	–
E34 [12], 37 nM	7.18	–
E34 [12], 111.1 nM	10.9	–
E34 [12], 333.3 nM	8.93	–
E34 [12], 1000 nM	12.6	–
E34 [12], 3000 nM	10.5	–
E57 [6], 4.1 nM	–	0.0256
E57 [6], 12.3 nM	–	0.0162
E57 [6], 37 nM	–	0.011
E57 [6], 111.1 nM	–	0.00523
E57 [6], 333.3 nM	–	0.00523
E57 [6], 1000 nM	–	0.00366
E57 [6], 3000 nM	–	0.0105
E57 [13], 4.1 nM	11.8	–
E57 [13], 12.3 nM	12.3	–
E57 [13], 37 nM	11.3	–
E57 [13], 111.1 nM	10.8	–
E57 [13], 333.3 nM	14.4	–
E57 [13], 1000 nM	8.37	–
E57 [13], 3000 nM	8.49	–
FT3469 [7], 4.1 nM	–	0.412
FT3469 [7], 12.3 nM	–	0.492
FT3469 [7], 37 nM	–	0.439
FT3469 [7], 111.1 nM	–	0.445
FT3469 [7], 333.3 nM	–	0.306
FT3469 [7], 1000 nM	–	0.156
FT3469 [7], 3000 nM	–	0.212
FT3469 [14], 4.1 nM	3.13	–
FT3469 [14], 12.3 nM	3.57	–
FT3469 [14], 37 nM	5.22	–
FT3469 [14], 111.1 nM	6.65	–
FT3469 [14], 333.3 nM	7.14	–
FT3469 [14], 1000 nM	7.83	–
FT3469 [14], 3000 nM	8.15	–

CNCCCC12CCC(c3ccccc31)c1ccccc12 [Maprotiline hydrochloride]
Settings	phenotypic distance	surviving fraction
E13 [1], 4.1 nM	–	0.984
E13 [1], 12.3 nM	–	1.05
E13 [1], 37 nM	–	0.987
E13 [1], 111.1 nM	–	1.05
E13 [1], 333.3 nM	–	1.1
E13 [1], 1000 nM	–	1.05
E13 [1], 3000 nM	–	0.911
E13 [8], 4.1 nM	0.553	–
E13 [8], 12.3 nM	0.296	–
E13 [8], 37 nM	0.356	–
E13 [8], 111.1 nM	0.55	–
E13 [8], 333.3 nM	0.608	–
E13 [8], 1000 nM	0.471	–
E13 [8], 3000 nM	0.392	–
E21 [2], 4.1 nM	–	1.04
E21 [2], 12.3 nM	–	0.944
E21 [2], 37 nM	–	0.982
E21 [2], 111.1 nM	–	1.06
E21 [2], 333.3 nM	–	1.02
E21 [2], 1000 nM	–	1.03
E21 [2], 3000 nM	–	1.06
E21 [9], 4.1 nM	0.674	–
E21 [9], 12.3 nM	1.04	–
E21 [9], 37 nM	0.745	–
E21 [9], 111.1 nM	1.03	–
E21 [9], 333.3 nM	0.9	–
E21 [9], 1000 nM	0.798	–
E21 [9], 3000 nM	0.546	–
E28 [3], 4.1 nM	–	1.23
E28 [3], 12.3 nM	–	0.929
E28 [3], 37 nM	–	0.979
E28 [3], 111.1 nM	–	1.21
E28 [3], 333.3 nM	–	1.13
E28 [3], 1000 nM	–	0.951
E28 [3], 3000 nM	–	0.979
E28 [10], 4.1 nM	0.756	–
E28 [10], 12.3 nM	0.57	–
E28 [10], 37 nM	0.744	–
E28 [10], 111.1 nM	0.651	–
E28 [10], 333.3 nM	0.753	–
E28 [10], 1000 nM	0.525	–
E28 [10], 3000 nM	0.615	–
E31 [4], 4.1 nM	–	1.07
E31 [4], 12.3 nM	–	1.06
E31 [4], 37 nM	–	1.02
E31 [4], 111.1 nM	–	0.859
E31 [4], 333.3 nM	–	1.18
E31 [4], 1000 nM	–	1.05
E31 [4], 3000 nM	–	1.01
E31 [11], 4.1 nM	0.322	–
E31 [11], 12.3 nM	0.404	–
E31 [11], 37 nM	0.529	–
E31 [11], 111.1 nM	0.826	–
E31 [11], 333.3 nM	0.77	–
E31 [11], 1000 nM	0.546	–
E31 [11], 3000 nM	0.55	–
E34 [5], 4.1 nM	–	1.04
E34 [5], 12.3 nM	–	0.869
E34 [5], 37 nM	–	0.875
E34 [5], 111.1 nM	–	1.01
E34 [5], 333.3 nM	–	1.02
E34 [5], 1000 nM	–	0.997
E34 [5], 3000 nM	–	1.07
E34 [12], 4.1 nM	0.824	–
E34 [12], 12.3 nM	0.524	–
E34 [12], 37 nM	0.568	–
E34 [12], 111.1 nM	1.03	–
E34 [12], 333.3 nM	0.644	–
E34 [12], 1000 nM	1.11	–
E34 [12], 3000 nM	0.788	–
E57 [6], 4.1 nM	–	1.06
E57 [6], 12.3 nM	–	1.12
E57 [6], 37 nM	–	1.09
E57 [6], 111.1 nM	–	1.1
E57 [6], 333.3 nM	–	0.986
E57 [6], 1000 nM	–	0.93
E57 [6], 3000 nM	–	1.09
E57 [13], 4.1 nM	0.339	–
E57 [13], 12.3 nM	0.804	–
E57 [13], 37 nM	0.81	–
E57 [13], 111.1 nM	0.882	–
E57 [13], 333.3 nM	0.422	–
E57 [13], 1000 nM	0.498	–
E57 [13], 3000 nM	0.628	–
FT3469 [7], 4.1 nM	–	1.09
FT3469 [7], 12.3 nM	–	1.18
FT3469 [7], 37 nM	–	1.3
FT3469 [7], 111.1 nM	–	1.07
FT3469 [7], 333.3 nM	–	0.901
FT3469 [7], 1000 nM	–	1.16
FT3469 [7], 3000 nM	–	0.869
FT3469 [14], 4.1 nM	0.707	–
FT3469 [14], 12.3 nM	0.982	–
FT3469 [14], 37 nM	0.677	–
FT3469 [14], 111.1 nM	1.1	–
FT3469 [14], 333.3 nM	0.895	–
FT3469 [14], 1000 nM	1.08	–
FT3469 [14], 3000 nM	0.56	–
